Data: patent US9320773B2, “Compounds and therapeutic applications related to inhibition of dendritic cell immunoreceptor (DCIR) activity and signaling events” (priority 2010, dated 2016)

Key:
[1] = tested on: DCIR expression in CD4+ T cells; assay: DCIR expression in CD4+ T cells after H2O2 or other apoptosis inducers (flow cytometry); format: cell-based, human
Description: Next, DCIR expression was assessed by flow cytometry. Data shown represent the ratio of DCIR expression over basal expression. The ratio is calculated from the means±SD of triplicate samples from three independent experiments. […] FIG. 16A: […] Expression of DCIR is shown as a dotted line, whereas the continuous line represents staining obtained with an isotype-matched irrelevant control Ab. Data shown correspond to a single experiment representative of 3 independent experiments. FIG. 16B: […] Thereafter, DCIR surface expression and caspase activation were monitored by flow cytometric analysis using a double-staining method consisting of FITC-VAD-FMK followed by the R-PE-conjugated anti-DCIR. Data shown correspond to a single experiment representative of 4 independent experiments. Cell surface expression of DCIR was monitored by flow cytometric analysis (Epics ELITE ESP, Coulter Electronics, Burlington, Canada). […] After washing, the cells were incubated with PE-labeled anti-DCIR (0.25 μg) for 45 min at 4° C. and then washed twice with PBS and 0.5% BSA. Non-specific staining was determined by using an isotype-matched irrelevant control antibody. After two final washes with PBS, cells were fixed in 2% paraformaldehyde for 30 min and analyzed.

[2] = tested on: CD4+ T cells; assay: Cell toxicity / viability of CD4+ T cells; format: cell-based, human; details: mitogen-stimulated CD4+ T cells; data not shown
[3] = tested on: CD4; details: induction of apoptosis by H2O2; data not shown
[4] = tested on: HIV-1 NL4-3 in CD4+ T cells
Description: Target CD4^+ T cells (1×10^6) were treated for 16 h with H2O2 (30 μM) to induce surface expression of DCIR. FIG. 17A: Cells were next exposed to NL4-3 (100 ng of p24) for 1 h at 37° C., extensively washed to remove unabsorbed virons before assessing the p24 content. FIG. 17B: Cells were first incubated with NL4-3 (100 ng of p24) for 2 h at 37° C., washed extensively to remove input virus and cultured in complete culture RPMI-1640 medium supplemented with rhIL-2 for the indicated number of days. Cell-free supernatants were collected and assayed for the p24 content. FIG. 17C: Cells were exposed to NL4-3 (100 ng of p24) for 2 h at 37° C., next washed extensively to remove input virus, and finally co-cultured with autologous CD4^+ T cells in complete culture RPMI-1640 medium supplemented with rhIL-2 for the indicated number of days. Cell-free supernatants were collected and assayed for the p24 content. Virus production at day 2 is depicted in the small inserts (FIGS. 17B and C). FIG. 17D: Cells were exposed to NL4-3 (100 ng of p24) for 2 h at 37° C., washed extensively to remove input virus, and maintained in complete culture medium supplemented with rhIL-2 for 3 days. Next, DCIR-negative and -positive cells (used as transmitter cells) were isolated with magnetic beads and co-cultured with uninfected CD4^+ T cells (used as recipient cells). […]

[5] = tested on: DC-SIGN; details: induction of apoptosis by H2O2; data not shown

With OO [H2O2, Hydrogen peroxide] the DCIR expression ([1]; CD4+ T cells treated with inducer, H2O2 20 to 60 μM, result in words) was “dose-dependent increased”, the “DCIR expression in activated CD4+ T cells” value ([1]; H2O2-treated cells (30 μM, 16 h), n=3) was 21.4±3.4% and the “apoptotic cells also positive for DCIR” value ([1]; H2O2 treatment, FITC-VAD-FMK and anti-DCIR double staining, n=3) was 12.2±3.2%. For the same compound, the “doses at which cell viability was reduced” value [2] was at least 45 µM, the “surface expression of CD4” value [3] was “not modulated” and the virus production [4] was “statistically significant increase”. The “virus binding and entry, p24” value ([4]; CD4+ T cells exposed to H2O2 (30 μM, 16 h), 3.8±0.8 without H2O2) was 12.5±1.8 ng/ml of p24 and the “surface expression of DC-SIGN” value [5] was “not modulated”.
